Laboratory results from a melting point compilation (Tetko et al.; mined from patent text by program, amines drawn as free bases though some values may be those of a salt).

melting point | Structure (SMILES)
120 to 123 °C | COc1ccc([C@H]2O[C@](O[Si](C)(C)C)(C(F)(F)F)C(C)(C)N2C(=O)c2ccccc2)cc1 (racemic)
56 to 58 °C | Cc1ccc(S)c(C(=O)O)c1
56 to 57 °C | C=CCc1c(OC)cc(C(=O)O)cc1OC
142 to 143 °C | CN1CCN(c2ccc(NC=C3C(=O)NC(=O)c4ccc(OCCN5CCOCC5)cc43)cc2)CC1
95 to 97 °C | CCCC[C@H](NC(=O)[C@H](CCCC)NC(=O)OCc1ccccc1)C(=O)CSCc1ccco1
120 °C | O=C(Nc1nccs1)c1cccc(C[C@@H]2COc3ccc(OCc4nc5cc(F)ccc5s4)cc3[C@@H]2O)c1 (relative stereo)
104 to 106 °C | Cc1cc(=O)c2ccc(OCC(O)CCl)cc2o1 (stereo unspecified)
231 to 233 °C | CCN1CCN([C@@H]2c3cc(C#N)ccc3OC(C)(C)[C@H]2O)C1=NC#N (relative stereo)
174 °C | O=C(O)c1cc(S(=O)(=O)Nc2ccc(Cl)cc2Cl)ccc1Cl
181 °C | O=c1cc(-c2cnccn2)ss1
215 to 216 °C | Cc1nc(-c2ccc(C(=O)N3CCN(S(=O)(=O)c4ccc5cc(Br)ccc5c4)CC3)cc2)c[nH]1
184 to 185 °C | Nc1ccc(F)cc1CS(=O)c1nc2ccccc2[nH]1 (stereo unspecified)
82 to 83 °C | Cc1ccc(S(=O)(=O)OCCC2COc3ccccc3O2)cc1 (stereo unspecified)
200 °C | O=C(O)c1cc2c(F)c(F)c(F)c(F)c2s1
276 °C | O=C(O)c1ccc2c(c1)C(=O)c1ccccc1S2(=O)=O
220 to 222 °C | COc1ccc(CCNc2nc3nc(-c4ccco4)nc-3c(N)[nH]2)cc1
189 to 191 °C | COc1cc(C(=O)c2c(C)nn(C)c2O)cc(OC)c1OC
151 to 153 °C | CNc1nc(-c2cccc(NC(=O)c3ccnc(Cl)c3)c2)c2cc(OC)c(OC)cc2n1
52 to 53 °C | CC(=O)OCC(=O)N(C)C
236 to 240 °C | O=C(O)Cc1ccc(-n2cnc3cnc4ccccc4c32)cc1
101 to 102 °C | COc1nnc2n1C=Cc1ccccc1C2C (stereo unspecified)
218 °C | COc1cc2c(O)c3c4c(ccnc4c2cc1OC)CCC3
59.3 to 59.8 °C | CCCCCCCCCCCCCCOc1c(CBr)cccc1CBr
118 to 120 °C | CCc1ccccc1-c1nc(-c2ccc(Cl)cc2)n[nH]1

melting point | Structure (SMILES)
210 to 213 °C | O=C(O)CCN1CCN(c2ccccc2Cl)CC1
180 °C | COc1ccc(C=CC(=O)NCCc2ccc(I)c(S(N)(=O)=O)c2)c(OC)c1
135 °C | CN(CCCN)S(=O)(=O)CCC(F)(F)C(F)(F)C(F)(F)C(F)(F)C(F)(F)C(F)(F)F
170 to 172 °C | CCOC(=O)c1cc(-n2c(=O)cc[nH]c2=O)ccc1Cl
202 to 206 °C | CN1CCN(C2=Nc3ccccc3Nc3ccsc32)CC1
174 to 175 °C | COC(=O)c1ccc(=O)n(CCNC(=O)c2cnc3ccccc3c2)c1
173 to 175 °C | CC(=O)Nc1c(C(=O)c2ncccc2C)[nH]c2cc(Cl)ccc12
303 to 304 °C | O=C(O)c1ccc(-c2nc(-c3cccnc3)cs2)cc1
155 to 156 °C | O=[N+]([O-])c1ccc(SCc2c[nH]cn2)nc1
> 300 °C | Cn1ncc2[nH]c3ccc(Cc4cccc(C(=O)O)c4)cc3c(=O)c21
72 to 74 °C | CCC(=NO)C(C)(C)NCCCN
> 270 °C | Nc1cc(-n2cc(C(=O)O)c(=O)c3cc(F)c(Cl)nc32)c(F)cc1F
179 to 180 °C | CC(=O)Nc1cnc(-c2ccccc2)nc1Cl
124 to 128 °C | CC(C)c1c(CCl)c(-c2ccc(F)cc2)nn1-c1ccccc1
93.1 to 93.7 °C | CC(=O)NCc1cc(C(C)=O)ccc1Cl
94 to 95 °C | Cn1cc(C(=O)Nc2ccccc2OC(F)(F)C(F)Cl)c(C(F)(F)F)n1 (stereo unspecified)
159 to 165 °C | Cc1ccc2sc3cc(F)ccc3c(=O)c2c1
121 to 122 °C | N#CCc1c(Cl)nc(-c2ccccc2)n1Cc1ccccc1
199 °C | O=C(c1ccc(-c2cnc3c(c2)N(Cc2c(Cl)cccc2Cl)C(=O)CN3)cc1)N1CCC(N2CCCC2)CC1
108 to 110 °C | Cc1cc(-c2cc3cc(OCCNC[C@H](O)c4cccc(Cl)c4)ccc3o2)no1
209 to 210 °C | COc1cccc(-c2c(C)c(NC(=O)CC(C)(C)C)c(C)c3c2OCC3c2ccc(C(C)C)cc2)c1 (stereo unspecified)
105 to 106 °C | COc1ccc(-c2csc(C(=O)O)n2)cc1OC
188 to 189 °C | CN(C)c1cnn(-c2ccccc2)c(=O)c1N
86 to 88 °C | CC(=NOCCCOc1ccccc1)C(=O)O

melting point | Structure (SMILES)
65 to 66 °C | CCC(CC)c1nn(-c2ccc(C(F)(F)F)cn2)cc1CCCOc1ccccc1CC(=O)O
253 to 254 °C | Nc1c(-c2ccc(-c3ccc(F)cc3F)cc2)nc2ccc(Cl)cc2c1C(=O)O
90 to 92 °C | Cc1cc(C(C)(C)C)cc(C)c1S(=O)(=O)C[N+](=O)[O-]
208 to 209 °C | CC(=O)CNC(=O)Nc1cc(-c2c(-c3ccc(F)c(C)c3)nc3cccnn23)ccn1
226 to 227 °C | COCCc1nc2c(N)nc3ccccc3c2n1CCCCNC(=O)c1c[nH]c2ccccc12
134 to 137 °C | Cc1ccccc1SCc1c(CCN(C)C)[nH]c2ccccc12
195 to 197 °C | CCOP(=O)(Cc1nnc2c(=O)[nH]c3c4ccccc4ccc3n12)OCC
212 to 213 °C | O=C(O)COc1c(Br)cc(-c2cccc3sc4ccccc4c23)cc1Br
105 to 107 °C | CCCc1nn(C)c2c(=O)n(CCNc3ccc(SC(C)(C)C(=O)OCC)cc3)c(CC)nc12
159 to 163 °C | Cc1nn(C)c2cc(-c3ccc4nnn(Cc5ccc6ncccc6c5)c4n3)ccc12
156 to 157 °C | Cc1ccc(C(=O)Nc2ccc(CN(C)C)c(C(F)(F)F)c2)cc1-c1ccc2cnncc2c1
153 to 155 °C | COc1cc2c(cc1OC)CN(c1c(C)c(C)c3c(c1C)C(c1ccc(C(C)C)cc1)C(C)(C)O3)C2 (stereo unspecified)
82 °C | CCCOc1ccccc1-c1nc2c(CCCCc3ccccc3)cccc2c(=O)[nH]1
220 to 225 °C | O=C(O)c1ccccc1C(=O)N1Cc2ccccc2Cc2ccccc21
149 to 160 °C | CCOC(=O)C1=C(COCC(C)(O)Cn2cncn2)NC(C)=C(C(=O)OC)C1c1cccc(Cl)c1Cl (stereo unspecified)
201 to 204 °C | CC(C)c1ccccc1N1/C(=N\N=C/c2ccc(-c3ncn(-c4ccc(OC(F)(F)F)cc4)n3)cc2)SCC1C (stereo unspecified)
187 °C | CCOC(=O)c1cc(NCc2ccccc2)c(Nc2ccc(Cl)cc2)c(S(N)(=O)=O)c1
79 to 80 °C | CC1(C(=O)NCCc2cccs2)CCCCC1
182 to 184 °C | O=C(O)c1cccc(NC(=O)C(CSC(=O)c2ccccc2)Cc2ccccc2)c1 (stereo unspecified)
63 to 64 °C | CS(=O)(=O)c1cccc(Br)c1
72 to 74 °C | C=CC[C@H]1Cc2c(OCOC)cccc2C(O)O1 (stereo partly specified)
171 to 172 °C | Cc1c(NC(=O)CC(C)(C)C)cc2c(c1C)OC(C)(C)C2c1ccc(Br)cc1 (stereo unspecified)
107 to 110 °C | COC(=O)c1ccc(NCc2cccc(F)c2)cc1
265 to 268 °C | O=C(NC1CC1)c1ccc(N2CCN(Cc3cnc4c(c3)NC(=O)[C@@H]3CCCN43)CC2)cc1

melting point | Structure (SMILES)
161 to 163 °C | CCCCN(Cc1ccc(-c2ccccc2-c2nnn[nH]2)cc1)c1nc(SC)ncc1C(=O)OCC
123 to 125 °C | COc1ccc2c(c1)C(CCNC(C)=O)CN(Cc1ccccc1)C2 (stereo unspecified)
170 to 171 °C | C=C(C)OC(=O)N1c2ccncc2NC(=O)C1C (racemic)
121 °C | O=C(O)c1cc(NCc2c(F)c(F)c(C(F)(F)F)c(F)c2F)ccc1[N+](=O)[O-]
200 to 201 °C | Cn1cc(CS(C)(=O)=O)c(=O)c2ccccc21
113 to 114 °C | CCOC(=O)c1cnn(-c2cc(C)cc(C)c2)c1N
139 to 140 °C | COc1ccc(C(=O)N2c3ccccc3C(N3CCCc4cc(C)ccc43)CC2C)cc1OC (stereo unspecified)
188 to 189 °C | COc1cc(OC)c2c(c1)N(C)C(c1cc(C)c(O)c(C)c1)N=C2 (stereo unspecified)
66 to 70 °C | O=C(CN1CCC(Cc2ccccc2)CC1)Nc1ccc(O)cc1
191 to 192 °C | CC(O)(C(=O)Nc1ccc(S(=O)(=O)c2ccccc2)cc1[N+](=O)[O-])C(F)(F)F (stereo unspecified)
85.7 to 86.3 °C | CC(C)c1cc(-c2ccc(F)c3ccccc23)nc(Nc2ccccc2)n1
152 to 154 °C | O=C(O)C(=O)c1ccc(OCCOc2ccc3ccccc3c2)s1
205 °C | CCOc1ccc2c(c1)n(C1CCCCC1)c(=O)n2S(=O)(=O)c1ccc(C(=O)O)cc1OC
114 to 116 °C | COc1cccc(C(O)C2CCN(CCc3ccc(F)cc3)CC2)c1OC (stereo unspecified)
244 to 245 °C | Nc1ncnc2c1nnn2C1CCC(O)C1O (stereo unspecified)
142 to 146 °C | CN1C(NCc2ccccc2)=Nc2ccncc2S1(=O)=O
238 to 239 °C | O=C(O)/C=C1\CCc2c(F)cc(F)cc21
242 to 245 °C | Nc1nc(-c2ccc(CCCCN3CCN(c4cccc5ccccc45)CC3)cc2)cs1
118 to 120 °C | COc1ccccc1N1CCN(C(=O)CCCN2CC=C(c3c[nH]c4cc(F)ccc34)CC2)CC1
144 to 145 °C | N=C(Nc1ccccc1-c1ccccc1)N1CCCC(O)C1 (stereo unspecified)
110 to 114 °C | C=Cc1ccc(OC)c(OC)c1
183 to 185 °C | Cn1c(-c2cccs2)n[nH]c1=O
105 to 107 °C | Cc1cccc(-n2c(-c3sc(Nc4ccccc4)nc3-c3ccccc3)nc3ccccc3c2=O)c1
211 to 213 °C | O=c1c2ccc3cc[nH]c3c2ccn1Cc1ccccc1

Structure (SMILES) | melting point
COc1ccc(CN2Cc3c(-c4nc(C5CC5)no4)ncn3-c3ccc(OC)cc3C2=O)c(OC)c1 | > 240 °C
N#CC(CCN1C2CCC1CC2)(c1ccccc1)c1ccccc1 | 79 to 81 °C
CC1(C)C(=O)N(c2ccc(C#N)c(C(F)(F)F)c2)C(=S)N1CCO | 130 °C
O=C(c1ccccc1)c1cc(Cl)ccc1-n1cnnc1 | 182 to 184 °C
COC(=O)C1c2ccccc2C2C(=O)NCCN21 (stereo unspecified) | 165 to 167 °C
